According to patent US20210204549A1, “BACILLUS AMYLOLIQUEFACIENS AND NEONICOTINOIDS MIXTURES AND METHODS OF USE THEREOF” (Valent U.S.A. LLC, priority 2020, published 2021):

System: tomato spotted wilt virus ("TSWV")
Experiment: Greenhouse test of in-furrow treatments on peanut plants infected with tomato spotted wilt virus
Assay type: in vivo
Conditions: peanut plants (Arachis hypogaea), furrow spray; imidacloprid 254.85 g/HA; 63 days after treatment
Experimental: The following greenhouse test was conducted from May 31, 2018 to Oct. 22, 2018 in Tift County, Georgia. Peanut plants (Arachis hypogaea) were used in the test as the crop plant. 6 seeds were planted per foot per row giving 360 seeds per plot. The peanut plants were infected with tomato spotted wilt virus (“TSWV”). Furrows were sprayed with B. amyloliquefaciens strain PTA-4838, imidacloprid, fluopyram and/or Mycorrhizae consortium at the rates disclosed in Table 1 prior to seedling plating. The plants were then infected with TSWV. Number of live plants were counted at 63 days after treatment. Percent TSWV infection was calculated as percent of row feet infected per plot. All data was analyzed using Bartlett's test and with p value of […] for determining significance of the results.

With `O=[N+]([O-])NC1=NCCN1Cc1ccc(Cl)nc1` [Imidacloprid, imidacloprid] the “% Control” value was 96.4a %.
